Data from patent US11466070B2, “Signalling system” (AUTOLUS LIMITED, priority 2016, dated 2022).

Test system: BW5 T-cells
Experiment: Activation of TetCAR-expressing BW5 T-cells challenged with SupT1 cells expressing CD33, with increasing tetracycline
Format: cell-based
Conditions: TetCAR (anti-CD33) BW5 T-cells challenged with SupT1 cells expressing CD33
Excerpt: A bicistronic construct was expressed in BW5 T cells as a single transcript which self-cleaves at the 2A site to yield a signalling component which comprises TiP fused via a flexible linker to the endodomain of CD3-Zeta; and a receptor component which comprises a CD33 recognizing scFv, a spacer derived from the Fc domain of IgG1, a CD4 derived transmembrane and intracellular domain; and TetR (FIG. 6a). A control was also expressed which was identical except that TiP was absent from the signalling component (FIG. 6b).
The BW5 T-cells were challenged with wild-type SupT1 cells or SupT1 cells engineered to express CD33 in the absence of tetracycline or in the presence of increasing concentrations of tetracycline.
Control TetCAR which lacks the TiP domain was also transduced into BW5. Once again, these T-cells were challenged with wild-type SupT1 cells or SupT1 cells engineered to express CD33 in the absence or in the presence of increasing concentration of Tetracycline.

## CN(C)[C@@H]1C(O)=C(C(N)=O)C(=O)[C@@]2(O)C(O)=C3C(=O)c4c(O)cccc4[C@@](C)(O)[C@H]3C[C@@H]12 [tetracycline, reference compound]
  concentration of tetracycline at which activation is fully inhibited: 100 nM
